Laboratory results published in patent US20210038607A1, “OXADIAZOLYLTHIOPHENE DERIVATIVES USEFUL AS HISTONE DEACETYLASE INHIBITORS” (Karus Therapeutics Limited, priority 2018, published 2021).

Legend:
[1] = biological target: T1, Human HDAC1 (Homo sapiens, UniProt Q13547); assay: HDAC1 biochemical assay, AMC-labeled peptide substrate; settings: read-out: HDAC Isoform IC50 (nM) 1
T1 construct: full length with C-terminal His-tag and C-terminal FLAG-tag; His (C); FLAG (C); host or cells: baculovirus expression system
T1 sequence (Q13547 whole entry, canonical isoform): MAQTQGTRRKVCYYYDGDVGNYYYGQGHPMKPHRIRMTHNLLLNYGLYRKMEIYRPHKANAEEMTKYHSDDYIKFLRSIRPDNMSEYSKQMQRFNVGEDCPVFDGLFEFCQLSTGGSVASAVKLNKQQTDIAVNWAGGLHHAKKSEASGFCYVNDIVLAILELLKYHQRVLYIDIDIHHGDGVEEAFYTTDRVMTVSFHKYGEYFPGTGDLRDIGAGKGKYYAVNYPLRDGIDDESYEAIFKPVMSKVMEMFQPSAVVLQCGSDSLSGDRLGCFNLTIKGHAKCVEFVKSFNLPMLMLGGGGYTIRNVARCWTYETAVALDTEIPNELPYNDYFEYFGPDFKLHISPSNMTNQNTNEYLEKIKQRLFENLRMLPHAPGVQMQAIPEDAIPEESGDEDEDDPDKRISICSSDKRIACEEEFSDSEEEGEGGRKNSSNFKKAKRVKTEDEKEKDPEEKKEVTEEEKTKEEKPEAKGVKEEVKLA
Method: (§1) Activity against all zinc-dependent HDACs 1 to 11 was assessed by using an acetylated AMC-labeled peptide substrate. The substrate RHKK(Ac)AMC was used for HDAC1, HDAC2, HDAC3, HDAC6 and HDAC10; the substrate used for HDAC8 was RHK(Ac)K(Ac)AMC. Activity against the class IIa HDACs (HDAC4, 5, 7, 9) and HDAC11 was determined using a class IIa-specific substrate, BOC-Lys(trifluoroacetyl)-AMC (“Trifluoroacetyl Lysine”; see Lahm et al, 2007, PNAS, 104, 17335-17340). All assays were based on the AMC-labeled substrate and developer combination.
(§2) The protocol involved a two-step reaction: first, the substrate with the acetylated lysine side chain is incubated with a sample containing HDAC activity, to produce the deacetylated products, which are then digested in the second step by the addition of developer to produce the fluorescent signal proportional to the amount of deacetylated substrates.
Human HDAC1 (GenBank Accession No. NM_004964), full length with C-terminal His-tag and C-terminal FLAG-tag, MW=56 kDa, expressed in baculovirus expression system.
(§3) Assay Buffer: 50 mM Tris-HCl, pH8.0, 137 mM NaCl, 2.7 mM KCl, 1 mM MgC2. Before use, 1 mg/mL BSA and DMSO are added.
HDAC1: 0.3 ng/ul HDAC1 and 50 μM HDAC substrate are in the reaction buffer with 1% DMSO final. Incubate for 1 hour at 30° C.
(§4) Stage 1: Deacetylation of substrate by incubation of HDAC enzymes with compounds
(§5) Stage 2: Development by addition of Developer to digest the deacetylated substrate, and generate the fluorescent colour; Detection: 360/460 Ex/Em

[2] = biological target: T2, Human HDAC4 (Homo sapiens, UniProt P56524); assay: HDAC4 biochemical assay, class IIa-specific substrate; settings: read-out: HDAC Isoform IC50 (nM) 4
T2 construct: amino acids 627-1085 with N-terminal GST tag; GST (N); host or cells: baculovirus expression system
T2 sequence (P56524 627-1084 limits assumed): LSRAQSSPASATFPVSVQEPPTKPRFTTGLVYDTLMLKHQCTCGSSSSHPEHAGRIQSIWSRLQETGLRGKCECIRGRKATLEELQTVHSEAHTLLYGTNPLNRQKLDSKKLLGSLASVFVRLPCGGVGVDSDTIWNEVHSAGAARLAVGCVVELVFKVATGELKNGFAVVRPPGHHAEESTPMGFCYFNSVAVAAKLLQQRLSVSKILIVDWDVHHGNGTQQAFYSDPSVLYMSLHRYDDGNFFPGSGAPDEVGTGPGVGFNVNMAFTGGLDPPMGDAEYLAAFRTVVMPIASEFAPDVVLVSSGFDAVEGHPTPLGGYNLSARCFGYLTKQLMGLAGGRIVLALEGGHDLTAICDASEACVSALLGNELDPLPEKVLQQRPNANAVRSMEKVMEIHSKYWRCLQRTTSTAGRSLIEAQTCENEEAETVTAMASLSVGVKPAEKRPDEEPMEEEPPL
Method: as §1, §2
Human HDAC4 (GenBank Accession No. NM_006037), amino acids 627-1085 with N-terminal GST tag, MW=75.2 kDa, expressed in baculovirus expression system.
as §3
(§6) For class IIa HDACs, assay buffer is the same.
HDAC4: 0.004 ng/ul HDAC4 and 50 μM Class IIa HDAC substrate are in the reaction buffer with 1% DMSO final. Incubate for 30 minutes at room temperature.
as §4, §5

[3] = biological target: T3, Human HDAC5 (Homo sapiens, UniProt Q9UQL6); assay: HDAC5 biochemical assay, class IIa-specific substrate; settings: read-out: HDAC Isoform IC50 (nM) 5
T3 construct: full length with C-terminal His tag, MW=51.1 kDa; His (C); host or cells: baculovirus expression system
T3 sequence (Q9UQL6 656-1122 limits assumed): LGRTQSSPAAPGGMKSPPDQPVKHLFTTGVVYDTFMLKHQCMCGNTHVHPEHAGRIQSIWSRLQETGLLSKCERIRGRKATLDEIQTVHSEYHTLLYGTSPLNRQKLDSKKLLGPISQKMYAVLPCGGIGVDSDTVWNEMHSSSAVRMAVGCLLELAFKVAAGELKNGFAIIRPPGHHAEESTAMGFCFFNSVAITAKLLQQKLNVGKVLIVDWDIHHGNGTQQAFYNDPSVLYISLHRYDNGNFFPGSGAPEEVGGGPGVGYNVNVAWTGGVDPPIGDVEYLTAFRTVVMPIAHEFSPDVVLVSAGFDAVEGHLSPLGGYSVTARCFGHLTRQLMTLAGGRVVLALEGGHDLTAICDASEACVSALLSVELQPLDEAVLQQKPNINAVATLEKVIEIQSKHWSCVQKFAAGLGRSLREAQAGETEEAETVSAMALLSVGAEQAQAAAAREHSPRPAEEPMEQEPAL
Method: as §1, §2
Human HDAC5 (GenBank Accession No. NM_005474), full length with C-terminal His tag, MW=51.1 kDa, expressed in baculovirus expression system.
as §3, §6
HDAC5: 0.05 ng/ul HDAC5 and 50 μM Class IIa HDAC substrate are in the reaction buffer with 1% DMSO final. Incubate for 30 minutes at room temperature.
as §4, §5

[4] = biological target: T4, Recombinant human HDAC6 (Homo sapiens, UniProt Q9UBN7); assay: HDAC6 biochemical assay, AMC-labeled peptide substrate; settings: HDAC6; read-out: HDAC Isoform IC50 (nM) 6
T4 construct: full length, MW=159 kDa; GST (N); host or cells: Sf9 insect cells (baculovirus)
T4 sequence (Q9UBN7 1-1215): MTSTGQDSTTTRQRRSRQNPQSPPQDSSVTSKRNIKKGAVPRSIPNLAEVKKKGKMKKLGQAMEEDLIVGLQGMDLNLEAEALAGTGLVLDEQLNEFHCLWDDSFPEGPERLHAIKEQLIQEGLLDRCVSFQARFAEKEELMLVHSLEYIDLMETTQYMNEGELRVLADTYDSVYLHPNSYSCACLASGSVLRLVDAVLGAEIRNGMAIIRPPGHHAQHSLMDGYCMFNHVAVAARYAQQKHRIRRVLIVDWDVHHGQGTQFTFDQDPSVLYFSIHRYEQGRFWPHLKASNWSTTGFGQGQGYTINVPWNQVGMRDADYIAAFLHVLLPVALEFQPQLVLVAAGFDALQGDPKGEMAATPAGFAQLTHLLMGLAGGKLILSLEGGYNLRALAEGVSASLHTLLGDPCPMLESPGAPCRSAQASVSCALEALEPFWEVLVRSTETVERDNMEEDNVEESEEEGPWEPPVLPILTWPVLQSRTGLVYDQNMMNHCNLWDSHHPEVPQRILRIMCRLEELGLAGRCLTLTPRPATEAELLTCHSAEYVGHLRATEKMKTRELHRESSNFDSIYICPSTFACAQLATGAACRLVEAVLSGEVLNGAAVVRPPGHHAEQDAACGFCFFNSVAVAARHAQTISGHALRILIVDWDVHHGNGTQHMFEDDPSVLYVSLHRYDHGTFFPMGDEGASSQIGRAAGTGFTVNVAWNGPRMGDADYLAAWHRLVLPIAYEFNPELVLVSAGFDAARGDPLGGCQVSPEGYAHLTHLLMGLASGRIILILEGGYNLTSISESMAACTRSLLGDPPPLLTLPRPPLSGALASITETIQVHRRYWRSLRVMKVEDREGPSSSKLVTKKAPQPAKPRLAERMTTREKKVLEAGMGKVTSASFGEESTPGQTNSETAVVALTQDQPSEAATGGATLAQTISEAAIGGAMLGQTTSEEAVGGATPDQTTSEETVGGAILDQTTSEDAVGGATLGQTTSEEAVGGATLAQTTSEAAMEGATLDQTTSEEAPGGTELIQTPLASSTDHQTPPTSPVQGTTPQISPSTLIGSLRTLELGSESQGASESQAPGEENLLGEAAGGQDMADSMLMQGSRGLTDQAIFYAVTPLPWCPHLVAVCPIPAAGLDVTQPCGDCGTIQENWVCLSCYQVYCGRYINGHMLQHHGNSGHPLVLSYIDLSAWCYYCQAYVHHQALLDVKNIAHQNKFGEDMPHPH
Method: as §1, §2
Recombinant human HDAC6 (GenBank Accession No. BC069243), full length, MW=159 kDa, was expressed by baculovirus in Sf9 insect cells using an N-terminal GST tag.
as §3
HDAC6: 0.3 ng/ul HDAC6 and 50 μM HDAC substrate are in the reaction buffer with 1% DMSO final. Incubate for 1 hours at 30° C.
as §4, §5

[5] = biological target: T5, Human HDAC7 (Homo sapiens, UniProt Q8WUI4); assay: HDAC7 biochemical assay, class IIa-specific substrate; settings: read-out: HDAC Isoform IC50 (nM) 7
T5 construct: (a.a. 518-end) with N-terminal GST tag; GST (N); host or cells: baculovirus expression system
T5 sequence (Q8WUI4 518-952 limits assumed): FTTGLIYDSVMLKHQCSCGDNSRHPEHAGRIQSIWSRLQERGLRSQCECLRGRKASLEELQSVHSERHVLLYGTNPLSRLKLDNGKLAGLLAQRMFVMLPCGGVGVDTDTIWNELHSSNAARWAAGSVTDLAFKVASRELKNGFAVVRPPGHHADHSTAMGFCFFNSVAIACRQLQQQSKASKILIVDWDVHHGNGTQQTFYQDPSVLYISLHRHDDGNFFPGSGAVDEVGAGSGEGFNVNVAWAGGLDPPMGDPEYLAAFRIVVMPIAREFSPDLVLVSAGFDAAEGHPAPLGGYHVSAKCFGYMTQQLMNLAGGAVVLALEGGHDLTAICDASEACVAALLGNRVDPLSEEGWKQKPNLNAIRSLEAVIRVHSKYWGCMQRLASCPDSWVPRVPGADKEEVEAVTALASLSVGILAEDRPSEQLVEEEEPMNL
Method: as §1, §2
Human HDAC7 (GenBank Accession No. AY302468), (a.a. 518-end) with N-terminal GST tag, MW=78 kDa, expressed in baculovirus expression system.
as §3, §6
HDAC7: 0.001 ng/ul HDAC7 and 50 μM Class IIa HDAC substrate are in the reaction buffer with 1% DMSO final. Incubate for 30 minutes at room temperature.
as §4, §5

[6] = biological target: T6, Human HDAC9 (Homo sapiens, UniProt Q9UKV0); assay: HDAC9 biochemical assay, class IIa-specific substrate; settings: read-out: HDAC Isoform IC50 (nM) 9
T6 construct: amino acids 604-1066 with C-terminal His tag; His (C); host or cells: baculovirus expression system
T6 sequence (Q9UKV0 604-1066 isoform Q9UKV0-5): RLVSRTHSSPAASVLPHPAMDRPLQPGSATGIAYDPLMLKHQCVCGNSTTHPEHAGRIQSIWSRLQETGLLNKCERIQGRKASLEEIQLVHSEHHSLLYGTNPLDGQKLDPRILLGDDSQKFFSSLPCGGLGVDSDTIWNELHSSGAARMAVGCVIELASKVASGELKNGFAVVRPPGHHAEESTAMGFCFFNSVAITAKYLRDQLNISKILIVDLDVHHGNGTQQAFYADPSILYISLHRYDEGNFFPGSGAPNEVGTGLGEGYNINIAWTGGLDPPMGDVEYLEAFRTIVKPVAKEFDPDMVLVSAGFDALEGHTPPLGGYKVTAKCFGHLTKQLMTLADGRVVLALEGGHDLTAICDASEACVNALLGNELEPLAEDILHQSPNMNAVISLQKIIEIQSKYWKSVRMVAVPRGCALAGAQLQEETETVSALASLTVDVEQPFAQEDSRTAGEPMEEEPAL
Method: as §1, §2
Human HDAC9 (GenBank Accession No. NM_178423), amino acids 604-1066 with C-terminal His tag, MW=50.7 kDa, expressed in baculovirus expression system.
as §3, §6
HDAC9: 0.06 ng/ul HDAC9 and 50 μM Class IIa HDAC substrate are in the reaction buffer with 1% DMSO final. Incubate for 30 minutes at room temperature.
as §4, §5

`Fc1cnc(N(Cc2ccc(-c3noc(C(F)(F)F)n3)s2)c2cnccn2)nc1` [Example AX, 5-Fluoro-N-(pyrazin-2-yl)-N-({5-[5-(trifluoromethyl)-1,2,4-oxadiazol-3-yl]thiophen-2-yl}methyl)pyrimidin-2-amine] was tested, and the IC50 [1] was over 10000 nM, the IC50 [2] was at most 10000 nM and the IC50 [3] was at most 10000 nM. The IC50 [4] was at most 10000 nM, the IC50 [5] was at most 10000 nM and the IC50 [6] was at most 10000 nM.

With `Cc1cnc(N(Cc2ccc(-c3noc(C(F)(F)F)n3)s2)c2cc(C(F)(F)F)cnn2)cn1` [Example EO, N-(5-Methylpyrazin-2-yl)-5-(trifluoromethyl)-N-({5-[5-(trifluoromethyl)-1,2,4-oxadiazol-3-yl]thiophen-2-yl}methyl)pyridazin-3-amine] the IC50 [1] was over 10000 nM, the IC50 [2] was at most 10000 nM and the IC50 [3] was at most 10000 nM. For the same molecule, the IC50 [4] was at most 10000 nM, the IC50 [5] was at most 10000 nM and the IC50 [6] was over 10000 nM.

`COc1ccnc(N(Cc2ccc(-c3noc(C(F)(F)F)n3)s2)c2cnccn2)n1` [Example AU, 4-Methoxy-N-(pyrazin-2-yl)-N-({5-[5-(trifluoromethyl)-1,2,4-oxadiazol-3-yl]thiophen-2-yl}methyl)pyrimidin-2-amine] showed an IC50 [1] of over 10000 nM, an IC50 [2] of at most 10000 nM and an IC50 [3] of at most 10000 nM. For the same molecule, the IC50 [4] was at most 10000 nM, the IC50 [5] was at most 10000 nM and the IC50 [6] was at most 10000 nM.

With `FC(F)(F)c1ncc(N(Cc2ccc(-c3noc(C(F)(F)F)n3)s2)c2cnccn2)cn1` [Example CV, N-(Pyrazin-2-yl)-2-(trifluoromethyl)-N-({5-[5-(trifluoromethyl)-1,2,4-oxadiazol-3-yl]thiophen-2-yl}methyl)pyrimidin-5-amine] the IC50 [1] was over 10000 nM, the IC50 [2] was at most 1000 nM and the IC50 [3] was at most 1000 nM. For the same molecule, the IC50 [4] was at most 10000 nM, the IC50 [5] was at most 1000 nM and the IC50 [6] was at most 10000 nM.

Work on `Cc1cncnc1N(Cc1ccc(-c2noc(C(F)(F)F)n2)s1)c1cnccn1` [Example CO, 5-Methyl-N-(pyrazin-2-yl)-N-({5-[5-(trifluoromethyl)-1,2,4-oxadiazol-3-yl]thiophen-2-yl}methyl)pyrimidin-4-amine] yielded an IC50 [1] of over 10000 nM, an IC50 [2] of at most 500 nM and an IC50 [3] of at most 1000 nM. The IC50 [4] was at most 1000 nM, the IC50 [5] was at most 1000 nM and the IC50 [6] was at most 10000 nM.

With `FC(F)(F)c1nc(-c2ccc(CN(c3cccnc3)c3cnccn3)s2)no1` [Example AO, N-(Pyridin-3-yl)-N-({5-[5-(trifluoromethyl)-1,2,4-oxadiazol-3-yl]thiophen-2-yl}methyl)pyrazin-2-amine] the IC50 [1] was over 10000 nM, the IC50 [2] was at most 500 nM and the IC50 [3] was at most 500 nM. The IC50 [4] was at most 500 nM, the IC50 [5] was at most 500 nM and the IC50 [6] was at most 1000 nM.

Molecule `Cc1ncc(N(Cc2ccc(-c3noc(C(F)(F)F)n3)s2)c2cnccn2)c(C)n1` [Example DB, 2,4-Dimethyl-N-(pyrazin-2-yl)-N-({5-[5-(trifluoromethyl)-1,2,4-oxadiazol-3-yl]thiophen-2-yl}methyl)pyrimidin-5-amine] has an IC50 [1] of over 10000 nM, an IC50 [2] of at most 500 nM and an IC50 [3] of at most 500 nM. It also gave an IC50 [4] of at most 10000 nM, an IC50 [5] of at most 1000 nM and an IC50 [6] of at most 1000 nM.

For `FC(F)(F)c1nc(-c2ccc(CN(c3ccc(N4CCCC4)nc3)c3cnccn3)s2)no1` [Example AP, N-[6-(Pyrrolidin-1-yl)pyridin-3-yl]-N-({5-[5-(trifluoromethyl)-1,2,4-oxadiazol-3-yl]thiophen-2-yl}methyl)pyrazin-2-amine], the IC50 [1] was over 10000 nM, the IC50 [2] was at most 10000 nM and the IC50 [3] was at most 10000 nM. For the same molecule, the IC50 [4] was over 10000 nM, the IC50 [5] was at most 10000 nM and the IC50 [6] was at most 10000 nM.

`Fc1cc(-c2noc(C(F)(F)F)n2)sc1CN(c1cnccn1)c1cnccn1` [Example EY, N-({3-Fluoro-5-[5-(trifluoromethyl)-1,2,4-oxadiazol-3-yl]thiophen-2-yl}methyl)-N-(pyrazin-2-yl)pyrazin-2-amine] showed an IC50 [1] of over 10000 nM, an IC50 [2] of at most 10000 nM and an IC50 [3] of at most 500 nM. It also gave an IC50 [4] of at most 500 nM, an IC50 [5] of at most 1000 nM and an IC50 [6] of at most 10000 nM.

With `FC(F)(F)c1cnnc(N(Cc2ccc(-c3noc(C(F)(F)F)n3)s2)c2ccncn2)c1` [Example EL, N-(Pyrimidin-4-yl)-5-(trifluoromethyl)-N-({5-[5-(trifluoromethyl)-1,2,4-oxadiazol-3-yl]thiophen-2-yl}methyl)pyridazin-3-amine] the IC50 [1] was over 10000 nM, the IC50 [2] was at most 10000 nM and the IC50 [3] was at most 1000 nM. The IC50 [4] was at most 1000 nM, the IC50 [5] was at most 10000 nM and the IC50 [6] was at most 10000 nM.
